Here are results for five compounds from ChEMBL document CHEMBL2086238, “Identification of ETP-46321, a potent and orally bioavailable PI3K α, δ inhibitor” (Bioorg Med Chem Lett, 2012).

Series [1] has as its target PI3-kinase p110-alpha/p85-alpha (Homo sapiens, UniProt P42336). Briefly: Inhibition of human PI3Kalpha (p110alpha/p85alpha) by ADP accumulation based HTRF assay. It is filed as protein-complex assay. The settings on record: for pKi: read-out: Ki(app). In general terms: Time-resolved FRET reads energy transfer from a long-lived donor to a nearby acceptor.
A short description of series [2]: Stability in human liver microsomes at 1 uM incubated for 15 mins. The class given is ADME, Microsome. The conditions noted are these: read-out: Stability. (Microsomes from liver hold many membrane-bound enzymes, among them those of drug oxidation.)
The nature of series [3]: Stability in mouse liver microsomes at 1 uM incubated for 15 mins. The class given is ADME, Microsome. The settings on record: read-out: Stability.
For the next series, the target named is T1, CYP1A2 (Homo sapiens, UniProt P05177).
T1 sequence (P05177 whole entry): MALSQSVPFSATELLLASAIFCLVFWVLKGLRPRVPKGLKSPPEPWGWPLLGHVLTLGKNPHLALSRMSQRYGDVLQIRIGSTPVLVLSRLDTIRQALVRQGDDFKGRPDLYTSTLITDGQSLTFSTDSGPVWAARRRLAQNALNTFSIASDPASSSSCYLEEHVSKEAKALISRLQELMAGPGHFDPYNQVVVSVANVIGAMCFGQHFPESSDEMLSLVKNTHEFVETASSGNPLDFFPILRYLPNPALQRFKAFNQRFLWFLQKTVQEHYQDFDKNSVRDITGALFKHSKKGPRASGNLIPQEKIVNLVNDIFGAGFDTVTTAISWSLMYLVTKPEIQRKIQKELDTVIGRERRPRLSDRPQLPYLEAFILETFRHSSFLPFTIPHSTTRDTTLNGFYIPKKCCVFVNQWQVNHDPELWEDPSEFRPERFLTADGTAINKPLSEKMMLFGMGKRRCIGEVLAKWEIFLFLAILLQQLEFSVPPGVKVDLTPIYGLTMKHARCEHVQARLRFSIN
Briefly: Inhibition of CYP1A2 at 10 uM. It is filed as ADME.

The target in another series is CYP2C19 (Homo sapiens, UniProt P33261). Briefly: Inhibition of CYP2C19 at 10 uM. The class given is ADME.
Chain of CYP2C19 (P33261 whole entry): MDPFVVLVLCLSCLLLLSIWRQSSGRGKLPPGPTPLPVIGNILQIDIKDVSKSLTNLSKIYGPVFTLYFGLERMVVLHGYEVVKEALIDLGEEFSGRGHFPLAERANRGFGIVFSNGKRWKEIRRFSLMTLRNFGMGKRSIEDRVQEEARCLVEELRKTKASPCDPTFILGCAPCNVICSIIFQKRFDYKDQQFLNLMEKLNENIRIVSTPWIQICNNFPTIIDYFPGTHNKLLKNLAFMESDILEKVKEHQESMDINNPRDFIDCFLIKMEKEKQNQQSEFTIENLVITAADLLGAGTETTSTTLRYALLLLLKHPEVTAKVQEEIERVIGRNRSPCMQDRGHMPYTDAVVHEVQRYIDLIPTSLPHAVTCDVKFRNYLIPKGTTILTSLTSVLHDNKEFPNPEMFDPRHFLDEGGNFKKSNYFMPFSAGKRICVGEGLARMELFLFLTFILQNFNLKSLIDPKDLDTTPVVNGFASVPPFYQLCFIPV
Series [4] deals with T2, NUAK family SNF1-like kinase 1 (Homo sapiens) (UniProt O60285).
T2 sequence (whole entry): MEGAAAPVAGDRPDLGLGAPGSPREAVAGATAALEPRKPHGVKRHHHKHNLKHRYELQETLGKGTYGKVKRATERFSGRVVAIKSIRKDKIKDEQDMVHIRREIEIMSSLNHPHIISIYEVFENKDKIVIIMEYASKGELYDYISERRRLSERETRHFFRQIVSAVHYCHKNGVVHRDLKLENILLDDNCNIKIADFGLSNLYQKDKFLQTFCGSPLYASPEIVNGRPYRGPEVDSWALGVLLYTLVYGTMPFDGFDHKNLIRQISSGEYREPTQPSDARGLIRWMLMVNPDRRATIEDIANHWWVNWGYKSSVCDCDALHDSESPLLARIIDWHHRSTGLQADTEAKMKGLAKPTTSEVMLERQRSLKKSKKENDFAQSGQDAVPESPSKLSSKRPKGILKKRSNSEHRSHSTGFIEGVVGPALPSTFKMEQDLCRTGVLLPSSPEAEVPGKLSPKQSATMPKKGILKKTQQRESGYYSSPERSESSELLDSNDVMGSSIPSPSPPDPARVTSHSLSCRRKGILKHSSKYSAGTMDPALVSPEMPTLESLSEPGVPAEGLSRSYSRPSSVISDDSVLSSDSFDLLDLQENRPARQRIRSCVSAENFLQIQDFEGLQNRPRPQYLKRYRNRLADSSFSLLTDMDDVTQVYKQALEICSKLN
Briefly: Inhibition of ARK5 at 1 uM.

The target in series [5] is Dual specificity tyrosine-phosphorylation-regulated kinase 1A (Homo sapiens) (UniProt Q13627). Briefly: Inhibition of DYRK1A at 1 uM.
The target in series [6] is Tyrosine-protein kinase JAK2 (Homo sapiens) (UniProt O60674). Briefly: Inhibition of JAK2 at 1 uM.
Chain of Tyrosine-protein kinase JAK2 (Homo sapiens) (O60674 whole entry): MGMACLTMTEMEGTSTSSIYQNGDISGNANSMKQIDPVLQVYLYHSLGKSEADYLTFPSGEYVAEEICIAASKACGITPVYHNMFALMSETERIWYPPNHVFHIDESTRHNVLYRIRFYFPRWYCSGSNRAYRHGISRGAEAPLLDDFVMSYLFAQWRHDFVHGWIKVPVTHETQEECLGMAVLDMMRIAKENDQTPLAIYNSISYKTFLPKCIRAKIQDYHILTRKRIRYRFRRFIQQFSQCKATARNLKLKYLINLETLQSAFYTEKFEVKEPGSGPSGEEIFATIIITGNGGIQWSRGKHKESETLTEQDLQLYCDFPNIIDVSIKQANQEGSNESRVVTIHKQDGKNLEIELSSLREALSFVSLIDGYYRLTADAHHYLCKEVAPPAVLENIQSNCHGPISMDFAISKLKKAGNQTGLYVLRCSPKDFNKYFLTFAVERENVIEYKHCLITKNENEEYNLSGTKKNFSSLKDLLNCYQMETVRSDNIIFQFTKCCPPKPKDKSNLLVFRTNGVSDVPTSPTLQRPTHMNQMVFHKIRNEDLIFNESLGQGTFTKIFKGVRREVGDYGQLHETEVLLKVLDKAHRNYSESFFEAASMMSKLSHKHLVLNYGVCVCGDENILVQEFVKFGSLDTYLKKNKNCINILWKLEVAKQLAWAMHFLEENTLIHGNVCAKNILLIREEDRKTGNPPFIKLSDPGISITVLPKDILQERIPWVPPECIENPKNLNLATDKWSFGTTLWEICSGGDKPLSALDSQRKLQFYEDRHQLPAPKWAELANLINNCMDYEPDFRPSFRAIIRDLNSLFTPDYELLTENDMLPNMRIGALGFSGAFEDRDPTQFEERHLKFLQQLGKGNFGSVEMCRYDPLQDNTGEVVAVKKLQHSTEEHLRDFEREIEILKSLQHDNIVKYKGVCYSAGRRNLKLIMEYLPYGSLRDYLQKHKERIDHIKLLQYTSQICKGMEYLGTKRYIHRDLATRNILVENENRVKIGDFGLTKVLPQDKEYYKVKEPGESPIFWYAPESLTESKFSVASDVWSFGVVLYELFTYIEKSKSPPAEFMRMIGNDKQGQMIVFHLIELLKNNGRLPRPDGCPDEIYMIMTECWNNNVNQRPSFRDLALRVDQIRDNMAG
The target in series [7] is Mast/stem cell growth factor receptor Kit (Homo sapiens) (UniProt P10721). Briefly: Inhibition of KIT at 1 uM.
Series [8] concerns the target Dual specificity mitogen-activated protein kinase kinase 1 (Homo sapiens) (UniProt Q02750). Briefly: Inhibition of MEK1 at 1 uM.
Series [9] addresses Ribosomal protein S6 kinase alpha-1 (Homo sapiens) (UniProt Q15418). As to the kind of experiment: Inhibition of RPS6KA1 at 1 uM.
Series [10] concerns the target T3, Serine/threonine-protein kinase Sgk1 (Homo sapiens) (UniProt O00141).
T3 sequence (whole entry): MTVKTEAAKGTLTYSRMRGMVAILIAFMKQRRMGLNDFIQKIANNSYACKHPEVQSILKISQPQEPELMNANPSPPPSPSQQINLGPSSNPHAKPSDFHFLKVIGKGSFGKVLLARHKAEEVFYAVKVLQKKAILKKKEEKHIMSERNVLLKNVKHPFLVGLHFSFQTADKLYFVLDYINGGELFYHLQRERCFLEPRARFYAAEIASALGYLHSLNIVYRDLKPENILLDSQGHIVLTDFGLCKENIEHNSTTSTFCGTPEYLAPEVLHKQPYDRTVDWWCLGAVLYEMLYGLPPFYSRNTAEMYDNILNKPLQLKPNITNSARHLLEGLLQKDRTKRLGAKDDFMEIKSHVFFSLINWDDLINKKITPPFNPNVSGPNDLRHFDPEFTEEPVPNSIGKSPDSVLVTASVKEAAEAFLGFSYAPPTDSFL
Briefly: Inhibition of SGK1 at 1 uM.

For series [11], the target named is RAC-alpha serine/threonine-protein kinase (Homo sapiens) (UniProt P31749). As to the kind of experiment: Inhibition of AKT1 at 5 uM.
Series [12] addresses T2, NUAK family SNF1-like kinase 1 (Homo sapiens). Briefly: Inhibition of ARK5 at 5 uM.
For series [13], the target named is Casein kinase I isoform alpha (Homo sapiens) (UniProt P48729). As to the kind of experiment: Inhibition of CK1alpha1 at 5 uM.
Series [14] concerns the target Insulin receptor (Homo sapiens) (UniProt P06213). Briefly: Inhibition of INSR at 5 uM.
The target in series [15] is Hepatocyte growth factor receptor (Homo sapiens) (UniProt P08581). As to the kind of experiment: Inhibition of MET at 5 uM.
The target of series [16] is T4, Serine/threonine-protein kinase 4 (Homo sapiens) (UniProt Q13043).
T4 sequence (whole entry): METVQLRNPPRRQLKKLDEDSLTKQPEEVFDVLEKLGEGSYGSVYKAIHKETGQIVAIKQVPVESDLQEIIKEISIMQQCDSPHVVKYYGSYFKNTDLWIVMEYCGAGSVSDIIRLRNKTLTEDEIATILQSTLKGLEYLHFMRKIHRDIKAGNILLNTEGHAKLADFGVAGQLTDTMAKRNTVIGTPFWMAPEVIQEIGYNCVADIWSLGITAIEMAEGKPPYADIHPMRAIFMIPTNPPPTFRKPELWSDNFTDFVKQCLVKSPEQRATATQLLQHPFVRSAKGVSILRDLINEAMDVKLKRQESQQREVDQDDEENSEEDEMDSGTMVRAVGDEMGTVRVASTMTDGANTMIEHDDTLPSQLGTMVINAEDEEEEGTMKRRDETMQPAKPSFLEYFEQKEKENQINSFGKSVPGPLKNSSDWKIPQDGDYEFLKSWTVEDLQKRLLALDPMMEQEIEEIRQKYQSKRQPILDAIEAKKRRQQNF
As to the kind of experiment: Inhibition of MST1 at 5 uM.

In series [17] the target is Ribosomal protein S6 kinase alpha-1 (Homo sapiens) (UniProt Q15418). Briefly: Inhibition of RPS6KA1 at 5 uM.

pIC50, pKi: −log10 of the molar value. Some results are limits rather than exact numbers.

Chain of PI3-kinase p110-alpha/p85-alpha (P27986 whole entry): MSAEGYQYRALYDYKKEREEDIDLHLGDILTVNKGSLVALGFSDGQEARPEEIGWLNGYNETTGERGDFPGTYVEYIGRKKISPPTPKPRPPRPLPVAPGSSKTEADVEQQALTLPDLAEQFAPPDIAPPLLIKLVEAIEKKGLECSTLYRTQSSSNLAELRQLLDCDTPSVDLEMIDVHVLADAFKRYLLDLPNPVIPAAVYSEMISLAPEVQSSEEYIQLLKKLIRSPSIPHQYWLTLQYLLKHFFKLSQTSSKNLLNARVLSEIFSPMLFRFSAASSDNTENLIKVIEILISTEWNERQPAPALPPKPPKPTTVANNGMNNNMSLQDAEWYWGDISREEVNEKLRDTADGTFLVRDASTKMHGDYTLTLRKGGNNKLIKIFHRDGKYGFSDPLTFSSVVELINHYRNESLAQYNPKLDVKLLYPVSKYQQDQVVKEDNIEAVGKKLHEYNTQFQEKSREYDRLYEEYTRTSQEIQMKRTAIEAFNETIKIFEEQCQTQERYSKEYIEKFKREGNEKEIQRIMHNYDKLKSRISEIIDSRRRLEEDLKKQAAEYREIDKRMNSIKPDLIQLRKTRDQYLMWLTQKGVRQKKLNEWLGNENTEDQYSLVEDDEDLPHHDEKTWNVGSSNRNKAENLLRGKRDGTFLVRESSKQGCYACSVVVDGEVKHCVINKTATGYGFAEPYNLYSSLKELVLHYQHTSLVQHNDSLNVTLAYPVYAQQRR
Chain of PI3-kinase p110-alpha/p85-alpha (P42336 whole entry): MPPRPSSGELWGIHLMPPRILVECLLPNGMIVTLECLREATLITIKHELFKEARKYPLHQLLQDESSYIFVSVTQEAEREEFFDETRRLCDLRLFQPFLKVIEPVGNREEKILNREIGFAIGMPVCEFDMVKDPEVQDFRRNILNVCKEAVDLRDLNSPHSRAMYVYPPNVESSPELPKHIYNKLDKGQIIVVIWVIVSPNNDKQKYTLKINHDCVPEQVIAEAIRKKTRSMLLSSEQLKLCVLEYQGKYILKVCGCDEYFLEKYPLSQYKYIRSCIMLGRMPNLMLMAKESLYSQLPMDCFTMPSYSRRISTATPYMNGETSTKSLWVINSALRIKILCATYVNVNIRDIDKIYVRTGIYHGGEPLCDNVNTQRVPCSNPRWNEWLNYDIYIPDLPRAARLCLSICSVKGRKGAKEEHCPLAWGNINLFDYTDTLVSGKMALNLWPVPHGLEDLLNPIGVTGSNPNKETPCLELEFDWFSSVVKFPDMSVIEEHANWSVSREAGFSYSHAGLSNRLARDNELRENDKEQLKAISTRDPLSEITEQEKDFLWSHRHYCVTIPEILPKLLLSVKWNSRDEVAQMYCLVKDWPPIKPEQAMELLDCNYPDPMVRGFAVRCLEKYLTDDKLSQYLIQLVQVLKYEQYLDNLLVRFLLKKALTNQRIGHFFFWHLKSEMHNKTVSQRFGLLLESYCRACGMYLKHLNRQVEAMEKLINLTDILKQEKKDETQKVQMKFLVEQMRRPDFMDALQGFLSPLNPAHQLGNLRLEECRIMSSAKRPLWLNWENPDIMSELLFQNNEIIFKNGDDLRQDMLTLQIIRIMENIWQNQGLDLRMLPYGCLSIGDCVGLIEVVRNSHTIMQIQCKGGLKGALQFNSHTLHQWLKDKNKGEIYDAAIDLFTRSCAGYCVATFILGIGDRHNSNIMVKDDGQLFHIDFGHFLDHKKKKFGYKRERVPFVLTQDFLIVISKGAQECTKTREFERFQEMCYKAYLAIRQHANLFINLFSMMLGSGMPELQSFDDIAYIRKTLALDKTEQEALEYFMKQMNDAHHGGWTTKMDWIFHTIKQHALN
Chain of Insulin receptor (Homo sapiens) (P06213 28-758 limits assumed): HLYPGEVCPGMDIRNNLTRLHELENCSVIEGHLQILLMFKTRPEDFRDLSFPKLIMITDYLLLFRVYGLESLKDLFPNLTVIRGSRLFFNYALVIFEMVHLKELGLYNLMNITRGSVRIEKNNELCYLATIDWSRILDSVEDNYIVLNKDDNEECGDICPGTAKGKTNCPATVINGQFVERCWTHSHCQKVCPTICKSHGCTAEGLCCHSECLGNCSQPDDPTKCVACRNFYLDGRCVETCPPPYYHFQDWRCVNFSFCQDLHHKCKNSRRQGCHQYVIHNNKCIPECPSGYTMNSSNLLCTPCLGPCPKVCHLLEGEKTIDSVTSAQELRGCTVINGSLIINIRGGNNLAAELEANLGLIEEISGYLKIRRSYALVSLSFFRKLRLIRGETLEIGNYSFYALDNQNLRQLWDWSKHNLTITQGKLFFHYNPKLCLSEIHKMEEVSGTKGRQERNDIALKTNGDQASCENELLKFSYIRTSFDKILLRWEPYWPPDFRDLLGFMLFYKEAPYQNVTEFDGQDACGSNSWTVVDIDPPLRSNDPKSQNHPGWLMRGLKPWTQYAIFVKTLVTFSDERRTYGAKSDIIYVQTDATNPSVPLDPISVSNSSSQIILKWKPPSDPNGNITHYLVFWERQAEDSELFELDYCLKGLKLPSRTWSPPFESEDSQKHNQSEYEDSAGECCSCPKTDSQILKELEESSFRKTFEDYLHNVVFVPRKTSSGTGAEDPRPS
Chain of Insulin receptor (Homo sapiens) (P06213 763-1382 limits assumed): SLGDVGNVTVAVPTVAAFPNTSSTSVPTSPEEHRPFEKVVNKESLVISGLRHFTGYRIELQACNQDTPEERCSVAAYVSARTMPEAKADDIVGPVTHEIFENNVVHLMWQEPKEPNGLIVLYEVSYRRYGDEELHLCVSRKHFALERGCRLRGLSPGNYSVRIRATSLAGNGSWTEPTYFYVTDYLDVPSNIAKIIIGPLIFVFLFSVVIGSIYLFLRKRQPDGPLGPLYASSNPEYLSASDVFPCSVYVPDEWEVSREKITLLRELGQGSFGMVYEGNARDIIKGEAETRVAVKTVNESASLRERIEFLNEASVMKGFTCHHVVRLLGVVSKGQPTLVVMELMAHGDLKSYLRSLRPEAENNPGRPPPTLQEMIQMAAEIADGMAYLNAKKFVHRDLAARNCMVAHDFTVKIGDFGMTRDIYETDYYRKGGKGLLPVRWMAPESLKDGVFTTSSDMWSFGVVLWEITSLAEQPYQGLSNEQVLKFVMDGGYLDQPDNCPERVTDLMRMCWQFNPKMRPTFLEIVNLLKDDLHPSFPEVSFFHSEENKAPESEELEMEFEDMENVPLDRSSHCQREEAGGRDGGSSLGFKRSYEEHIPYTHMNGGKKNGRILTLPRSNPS

One may read the pKi as the Ki on a negative log10 scale, so that one unit is a factor of ten. By inhibition is commonly meant the percentage by which the read-out fell short of the control. Take `CS(=O)(=O)N1CCN(Cc2cn3c(Cl)c(-c4cnc(N)nc4)nc(N4CCOCC4)c3n2)CC1`: in series [1], the pKi is 8.62. In addition, the values for the remaining at 0.25 h, 1 µM in series [2] and in series [3] were 86% and 91%, respectively. Moreover, the inhibition at 10 µM against CYP1A2 and against CYP2C19 was below 30% each time. The inhibition in series [4], in series [5], in series [6], in series [7], in series [8] and in series [9] was below 30% in each case. For the same compound, the inhibition in series [10], in series [11], in series [12], in series [13], in series [14] and in [15] was below 30% each time. Also, the inhibition in series [16] and in [17] was below 30% throughout.

In general, pIC50 refers to the IC50 on a negative log10 scale, so that one unit is a factor of ten. Take `CS(=O)(=O)N1CCN(Cc2nc3c(N4CCOCC4)nc(-c4cnc(N)nc4)cn3c2Br)CC1`: the pIC50 in series [1] was 9.15. Also, the remaining at 0.25 h, 1 µM in series [2] is 70%; in series [3], 43%. The inhibition at 10 µM against CYP1A2 and at CYP2C19 was below 30% each time. The inhibition in series [4], in series [5], in [6], in series [7], in series [8] and in series [9] was below 30% throughout. Moreover, the inhibition in [10], in series [11], in series [12], in series [13], in series [14] and in [15] was below 30% throughout. Also, the inhibition in series [16] and in series [17] was below 30% each time.

With `CS(=O)(=O)N1CCN(Cc2cn3cc(-c4cnc(N)nc4)nc(N4CCOCC4)c3n2)CC1`, the remaining at 0.25 h, 1 µM was 93% in series [2] and 88% in series [3]. The inhibition at 10 µM on CYP1A2 and on CYP2C19 was below 30% throughout. Further, the inhibition in [4], in series [5], in series [6], in series [7], in series [8] and in series [9] was below 30% throughout. In addition, the inhibition in series [10], in series [11], in series [12], in series [13], in series [14] and in [15] was below 30% throughout. The inhibition in series [16] and in [17] was below 30% each time.

As for `Cc1nc(N)ncc1-c1cn2cc(CN3CCN(S(C)(=O)=O)CC3)nc2c(N2CCOCC2)n1`, the inhibition in series [4], in series [5], in series [6], in series [7], in series [8] and in [9] was below 30% throughout. Besides, the inhibition in series [10], in series [11], in [12], in [13], in series [14] and in series [15] was below 30% in each case. For the same compound, the inhibition in series [16] and in [17] was below 30% in each case.

Regarding `Cc1c(CN2CCN(S(C)(=O)=O)CC2)nc2c(N3CCOCC3)nc(-c3cnc(N)nc3)cn12`, the negative logarithm of the IC50 (pIC50) in [1] was 8.00. Moreover, in [1], the pKi is 8.00. Moreover, the remaining at 0.25 h, 1 µM was 88% in series [2] and 80% in [3]. For the same compound, the inhibition at 10 µM against CYP1A2 and against CYP2C19 was below 30% throughout. Also, the inhibition in series [4], in series [5], in [6], in series [7], in series [8] and in series [9] was below 30% in each case. For the same compound, the inhibition in series [10], in series [11], in series [12], in [13], in series [14] and in series [15] was below 30% throughout. Also, the inhibition in [16] and in series [17] was below 30% in each case.
